Data on 11 molecules can be found in patent US6946482B2, “Motilide compounds” (Kosan Biosciences, Inc., priority 2002, dated 2005).

The test system of assay [1] is Streptococcus pneumoniae ATCC 6301. Briefly: In vitro susceptibility test (MIC). The note with it: ATCC6301. The assay is classed as cell-based. On the procedure:
Antibacterial activity (Table 2) was determined by in vitro susceptibility tests against Streptococcus pneumoniae ATCC 6301, a macrolide-sensitive strain, using methods known in the microbiological art.

The next assay deals with gut contraction. The settings on record: conscious dogs, dose 1 mg/kg; cited from earlier work.
Assay [2] addresses T1, motilin receptor (Homo sapiens, UniProt O43193).
T1 construct: expressed in transfected cells
Briefly: Motilin receptor activation, calcium-influx assay. The assay is classed as cell-based. From the text: The compounds of formula (I) are agonists of the motilin receptor.

Assay [3] has as its target T1, motilin receptor. The note with it: cited from earlier work.
Assay [4] concerns the target T1, motilin receptor. As to the kind of experiment: Motilin receptor desensitization, cell-based assay. Here is the method:
Compounds were tested for motilin receptor desensitization using the cell-based assay described in Carreras et al., US 2002/0192709 A1 (2002), “Methods for Evaluating Therapeutic Efficacy,” the disclosure of which is incorporated herein by reference.

Assay [5] has as its target T1, motilin receptor. The settings on record: cell-based and muscle strip contractility assays; cited from earlier work.
Where [6] appears, read: Streptococcus pneumoniae ATCC 6301, macrolide-sensitive strain, read-out: MIC.

≈ marks a conversion by molar mass, not a printed value. Read-outs that look alike come from different tables or passages of the source. Where only a bound is given, the exact number is not on record here.

T1 sequence (O43193 whole entry): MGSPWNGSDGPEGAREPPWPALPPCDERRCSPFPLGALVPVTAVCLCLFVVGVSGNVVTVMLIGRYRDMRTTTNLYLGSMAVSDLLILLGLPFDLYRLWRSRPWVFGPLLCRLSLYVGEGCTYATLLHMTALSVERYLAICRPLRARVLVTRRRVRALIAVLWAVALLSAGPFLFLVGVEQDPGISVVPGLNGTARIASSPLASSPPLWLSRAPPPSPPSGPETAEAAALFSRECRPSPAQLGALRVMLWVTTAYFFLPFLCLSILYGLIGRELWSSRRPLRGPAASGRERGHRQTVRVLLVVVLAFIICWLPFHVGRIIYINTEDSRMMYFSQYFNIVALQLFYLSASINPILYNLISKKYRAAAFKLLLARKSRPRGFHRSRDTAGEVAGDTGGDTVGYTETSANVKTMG

Consider `CCC1OC(=O)C(C)C(OC2CC(C)(OC)C(O)C(C)O2)C(C)C(OC2OC(C)CC(N(C)C)C2O)C(C)(O)CC(C)C(O)C(C)C(O)C1(C)O` [A, (9S)-9-dihydroerythromycin A, reference compound], for which the MIC in assay [1] (setting [6]) was 0.3 µg/mL (≈ 0.408 µM). For the same molecule, the “Activity relative to erythromycin, stimulation of gut contraction” value in the assay on gut contraction is 65%. At motilin receptor [2], the EC50 was 2500 nM.
Consider `CCC1OC(=O)C(C)C(OC2CC(C)(OC)C(O)C(C)O2)C(C)C(OC2OC(C)CC(N(C)C)C2O)C(C)(O)CC(C)C(=O)C(C)C(O)C1(C)O` (centres unmarked) [Erythromycin A, reference compound], for which 0.03 µg/mL (≈ 0.0409 µM) was the least that counted as inhibitory in assay [1] (Streptococcus pneumoniae) (MIC). For the same molecule, on motilin receptor [3], the “Motilin agonist activity (in words)” value is listed as “motilin agonist activity”.
For `CCCC1OC(=O)C(C)C(OC2CC(C)(OC)C(O)C(C)O2)C(C)C(OC2OC(C)CC(N(C)C(C)C)C2O)C(C)(O)CC(C)C(O)C(C)C(O)C1(C)O` [G, N-desmethyl-N-isopropyl-15-methyl-(9S)-9-dihydroerythromycin A], the MIC in assay [1] (setting [6]) is over 100 µg/mL. Besides, on motilin receptor [2], the half-maximal effective concentration (EC50) was 1400 nM. Also, the “Activity following exposure to compound (% of original activity retained)” value on motilin receptor [4] (1 μM compound) and at motilin receptor [4] (10 μM compound) was 100% in each case.
`CCN(C)C1CC(C)OC(OC2C(C)C(OC3CC(C)(OC)C(O)C(C)O3)C(C)C(=O)OC(CCF)C(C)(O)C(O)C(C)C(O)C(C)CC2(C)O)C1O` [D, N-desmethyl-N-ethyl(9S)-9-dihydro-15-fluoroerythromycin A]: the EC50 on motilin receptor [2] stood at 2000 nM.
On to `CCC1OC(=O)C(C)C(OC2CC(C)(OC)C(O)C(C)O2)C(C)C(OC2OC(C)CC(N(C)C(C)C)C2O)C(C)(O)CC(C)C(O)C(C)C(O)C1(C)O` (centres unmarked) [B], for which, at motilin receptor [2], the EC50 was 490 nM.
Same read-out and setting: the same measure for `COC1(C)CC(OC2C(C)C(=O)OC(CCF)C(C)(O)C(O)C(C)C(O)C(C)CC(C)(O)C(OC3OC(C)CC(N(C)C(C)C)C3O)C2C)OC(C)C1O` [E, N-desmethyl-N-isopropyl(9S)-9-dihydro-15-fluoroerythromycin A]: 520 nM; for `COC1(C)CC(OC2C(C)C(=O)OC(CCF)C(C)(O)C(O)C(C)C(O)C(C)CC(C)(O)C(OC3OC(C)CC(N(C)C)C3O)C2C)OC(C)C1O` [C, (9S)-9-dihydro-15-fluoroerythromycin A]: 5000 nM.
Turning to `CCCC1OC(=O)C(C)C(OC2CC(C)(OC)C(O)C(C)O2)C(C)C(OC2OC(C)CC(N(C)C)C2O)C(C)(O)CC(C)C(O)C(C)C(O)C1(C)O` [F, (9S)-9-dihydro-15-methylerythromycin A], the MIC in assay [1] (setting [6]) came out at 1 µg/mL (≈ 1.33 µM). For the same molecule, at motilin receptor [2], the EC50 came to 8600 nM. Further, the “Activity following exposure to compound (% of original activity retained)” value on motilin receptor [4] (1 μM compound) and on motilin receptor [4] (10 μM compound) was 100% in each case.
In the case of `CCCC1OC(=O)C(C)C(OC2CC(C)(OC)C(O)C(C)O2)C(C)C(OC2OC(C)CC(N(C)C(C)CC)C2O)C(C)(O)CC(C)C(O)C(C)C(O)C1(C)O` [H, N-desmethyl-N-(2-butyl) (9S)-9-dihydro-15-methylerythromycin A], the EC50 at motilin receptor [2] was 3300 nM.
With `CC[C@H]1OC(=O)[C@H](C)[C@@H](OC2C[C@@](C)(OC)C[C@H](C)O2)[C@H](C)[C@@H](OC2O[C@H](C)C[C@H](N(C)C(C)C)[C@H]2O)[C@@]2(C)CC(C)=C(O2)[C@H](C)C(=O)[C@]1(C)OC` (some centres unmarked) [Compound 7], the “Motilin receptor desensitization (in words)” value on motilin receptor [5] was “show motilin receptor desensitization”.
Regarding `CCC1OC(=O)C(C)C(OC2CC(C)(OC)C(O)C(C)O2)C(C)C(OC2OC(C)CC(N(C)C(C)C)C2O)C(C)(O)CC(C)C(O)C(C)CC1C` [J, N-desmethyl-N-isopropyl-11-deoxy-(9S)-9-dihydroerythromycin B], the MIC in assay [1] (setting [6]) was over 100 µg/mL. In addition, the EC50 on motilin receptor [2] turned out to be 160 nM. The “Activity following exposure to compound (% of original activity retained)” value on motilin receptor [4] (1 μM compound) and at motilin receptor [4] (10 μM compound) was 88% each time.
